Test system: SARS-CoV-2
Assay: microbe, parasite or virus in culture
Details: Severe acute respiratory syndrome coronavirus 2, Vero C1008, 48 h

| SMILES | IC50 [µM] | IC50 (read-out: pIC50 (converted)) [µM] |
| --- | --- | --- |
| CCc1nc(-c2cccc(C)c2)c(-c2ccnc(NC(=O)c3ccccc3)c2)s1 [TAK-715] | > 20 | > 20 |
| CC(C)[C@H](N)C(=O)N1CCC[C@H]1B(O)O [TALABOSTAT] | > 20 | > 20 |
| CN(C(=O)c1ccc(F)cc1C(F)(F)F)C1CCN(c2nnc(-c3ccnn3C)c3ccccc23)CC1 [TALADEGIB] | > 20 | > 20 |
| CC1(C)S[C@@H]2[C@H](NC(=O)[C@H](N)c3ccccc3)C(=O)N2[C@H]1C(=O)OC1OC(=O)c2ccccc21 (stereo partly specified) [TALAMPICILLIN] | > 20 | > 20 |
| Cn1ncnc1[C@H]1c2n[nH]c(=O)c3cc(F)cc(c23)N[C@@H]1c1ccc(F)cc1 [TALAZOPARIB] | > 20 | > 20 |
| CC(C)(C)NCC(O)COc1ccc(NC(=O)NC2CCCCC2)cc1 (stereo unspecified) [TALINOLOL] | > 20 | > 20 |
| C=CCN1CCc2nc(N)sc2CC1 [TALIPEXOLE] | > 20 | > 20 |
| C[C@@H]1CN(Cc2ccc(F)cc2)[C@@H](C)CN1C(=O)c1cc2c(C(=O)C(=O)N(C)C)cn(C)c2cc1Cl [TALMAPIMOD] | > 20 | > 20 |
| CC[C@H](NC(=O)c1c(O)c(-c2ccccc2)nc2ccccc12)c1ccccc1 [TALNETANT] | > 20 | > 20 |
| CNCCCC1(c2ccccc2)OC(C)(C)c2ccccc21 (stereo unspecified) [TALOPRAM] | > 20 | > 20 |
| CN[C@@H]1CC[C@@H](c2ccccc2)c2ccccc21 [TAMETRALINE] | > 20 | > 20 |
| CC1(C)CCC(C)(C)c2cc(NC(=O)c3ccc(C(=O)O)cc3)ccc21 [TAMIBAROTENE] | > 20 | > 20 |
| CC/C(=C(\c1ccccc1)c1ccc(OCCN(C)C)cc1)c1ccccc1 [TAMOXIFEN] | > 20 | > 20 |
| CCOc1ccccc1OCCN[C@H](C)Cc1ccc(OC)c(S(N)(=O)=O)c1 [TAMSULOSIN] | > 20 | > 20 |
| O=C1[C@@H]2[C@H]3CC[C@H](C3)[C@@H]2C(=O)N1CCCCN1CCN(c2ncccn2)CC1 [TANDOSPIRONE] | > 20 | > 20 |
| O[C@H]1CC[C@H](Nc2ncc3nc(Nc4c(F)cc(F)cc4F)n([C@H]4CCOC4)c3n2)CC1 [TANZISERTIB] | > 20 | > 20 |
| CC[C@@H](c1cccc(O)c1)[C@@H](C)CN(C)C [TAPENTADOL] | > 20 | > 20 |

| SMILES | IC50 [µM] | IC50 (read-out: pIC50 (converted)) [µM] |
| --- | --- | --- |
| C[C@H](NC(=O)C(C)(C)Oc1ccc(C(F)(F)F)cn1)[C@@H](Cc1ccc(Cl)cc1)c1cccc(C#N)c1 [TARANABANT] | > 20 | > 20 |
| C[C@@H](C(=O)O)c1ccc(-c2ccccc2)c(F)c1 [TARENFLURBIL] | > 20 | > 20 |
| O=C(O)C(O)C(O)C(=O)O (stereo unspecified) [TARTARIC ACID] | > 20 | > 20 |
| C#C[C@@]1(O)[C@@H](CO)O[C@@H](n2ccc(N)nc2=O)[C@@H]1O [TAS-106] | > 20 | > 20 |
| CCC(=O)NC[C@@H]1C[C@H]1c1cccc2c1CCO2 [TASIMELTEON] | > 20 | > 20 |
| c1cnc(SCc2cccnc2)nc1 [TASULDINE] | > 20 | > 20 |
| NCCS(=O)(=O)O [TAURINE] | > 20 | > 20 |
| C[C@H](CCC(=O)NCCS(=O)(=O)O)[C@H]1CC[C@H]2[C@@H]3[C@@H](O)C[C@@H]4C[C@H](O)CC[C@]4(C)[C@H]3CC[C@]12C [TAURURSODIOL] | > 20 | > 20 |
| OB1OCc2cc(F)ccc21 [TAVABOROLE] | > 20 | > 20 |
| CCOC(=O)c1ccc(C#Cc2ccc3c(c2)C(C)(C)CCS3)nc1 [TAZAROTENE] | > 20 | > 20 |
| CCN(c1cc(-c2ccc(CN3CCOCC3)cc2)cc(C(=O)NCc2c(C)cc(C)[nH]c2=O)c1C)C1CCOCC1 [TAZEMETOSTAT] | > 20 | > 20 |
| C[C@]1(Cn2ccnn2)[C@H](C(=O)O)N2C(=O)C[C@H]2S1(=O)=O [TAZOBACTAM] | > 20 | > 20 |
| [2H]C1([2H])[C@H]2C[C@@H](Oc3ccc(C(F)(F)F)cn3)[C@H](C2)N1C(=O)c1cccc(F)c1-c1ncccn1 [TEBIDEUTOREXANT] | > 20 | > 20 |
| Cn1nnc(-c2ccc(-c3ccc(N4C[C@H](COP(=O)(O)O)OC4=O)cc3F)cn2)n1 [TEDIZOLID PHOSPHATE] | > 20 | > 20 |
| O=c1[nH]c(=O)n(C2CCCO2)cc1F (stereo unspecified) [TEGAFUR] | > 20 | > 20 |
| CCCCCNC(=N)N/N=C/c1c[nH]c2ccc(OC)cc12 [TEGASEROD] | > 20 | > 20 |

From ChEMBL document CHEMBL4651402, “Screening of ~5500 FDA-approved drugs and clinical candidates for anti-SARS-CoV-2 activity” (2021)
